According to patent publication US9809578B2, “Pyrazolyl urea, thiourea, guanidine and cyanoguanidine compounds as trkA kinase inhibitors” (Array BioPharma Inc., priority 2012, dated 2017):

Legend:
CDK5/p35 = molecular target: T1, CDK5/p35 (Homo sapiens, UniProt Q00535); experiment: KinaseProfiler CDK5/p35; type: biochemical; conditions: 10 μM, ATP near Km
T1 construct: purchased Millipore, Inc. (KinaseProfiler service)
Text: (§1) The compound was run in duplicate at a concentration of ATP near the Km for each individual kinase according to Millipore's specifications.

EphB3 = molecular target: T2, EphB3 (Homo sapiens, UniProt P54753); experiment: KinaseProfiler EphB3; type: biochemical; conditions: 10 μM, ATP near Km
T2 construct: purchased Millipore, Inc. (KinaseProfiler service)
Text: as §1

GSK3alpha = molecular target: T3, GSK3alpha (Homo sapiens, UniProt P49840); experiment: KinaseProfiler GSK3alpha; type: biochemical; conditions: 10 μM, ATP near Km
T3 construct: purchased Millipore, Inc. (KinaseProfiler service)
Text: as §1

[1] = molecular target: T4, His-tagged recombinant human TrkA (Homo sapiens, UniProt P04629); experiment: TrkA LanthaScreen Eu Kinase Binding Assay
T4 construct: 6HIS tagged cytoplasmic domain from Invitrogen, Cat. No. PV3144; purchased Invitrogen PV3144
Protocol: TrkA binding activity was determined in a TrkA LanthaScreen™ Eu Kinase Binding Assay. […] Three fold serial dilutions of compounds of the invention in DMSO were added to a final percentage of 2% DMSO. […] The percent of control was calculated using a ratiometric emission factor. The IC50 values were determined by fitting a four parameter model to the percent of control data.

PTK6 = molecular target: T5, PTK6 (Homo sapiens, UniProt Q13882); experiment: KinaseProfiler PTK6; type: biochemical; conditions: 10 μM, ATP near Km
T5 construct: purchased Millipore, Inc. (KinaseProfiler service)
Text: as §1

Bmx = molecular target: T6, Bmx (Homo sapiens, UniProt P51813); experiment: KinaseProfiler Bmx; type: biochemical; conditions: 10 μM, ATP near Km
T6 construct: purchased Millipore (KinaseProfiler service)
Text: as §1

EphA7 = molecular target: T7, EphA7 (Homo sapiens, UniProt Q15375); experiment: KinaseProfiler EphA7; type: biochemical; conditions: 10 μM, ATP near Km
T7 construct: purchased Millipore, Inc. (KinaseProfiler service)
Text: as §1

PTK5 = molecular target: T8, PTK5 (Homo sapiens, UniProt P42685); experiment: KinaseProfiler PTK5; type: biochemical; conditions: 10 μM, ATP near Km
T8 construct: purchased Millipore, Inc. (KinaseProfiler service)
Text: as §1

Fer = molecular target: T9, Fer (Homo sapiens, UniProt P16591); experiment: KinaseProfiler Fer; type: biochemical; conditions: 10 μM, ATP near Km
T9 construct: purchased Millipore, Inc. (KinaseProfiler service)
Text: as §1

SGK1 = molecular target: T10, SGK1 (Homo sapiens, UniProt O00141); experiment: KinaseProfiler SGK1; type: biochemical; conditions: 10 μM, ATP near Km
T10 construct: purchased Millipore, Inc. (KinaseProfiler service)
Text: as §1

Abl2 = molecular target: T11, Abl2 (Homo sapiens, UniProt P42684); experiment: KinaseProfiler Abl2; type: biochemical; conditions: 10 μM, ATP near Km
T11 construct: purchased Millipore (KinaseProfiler service)
Text: as §1

CDK7/cyclinH/MAT1 = molecular target: T12, CDK7/cyclinH/MAT1 (Homo sapiens, UniProt P50613); experiment: KinaseProfiler CDK7/cyclinH/MAT1; type: biochemical; conditions: 10 μM, ATP near Km
T12 construct: purchased Millipore, Inc. (KinaseProfiler service)
Text: as §1

FGFR1 = molecular target: T13, FGFR1 (Homo sapiens, UniProt P11362); experiment: KinaseProfiler FGFR1; type: biochemical; conditions: 10 μM, ATP near Km
T13 construct: purchased Millipore, Inc. (KinaseProfiler service)
Text: as §1

AKT3 = molecular target: T14, AKT3 (Homo sapiens, UniProt Q9Y243); experiment: KinaseProfiler AKT3; type: biochemical; conditions: 10 μM, ATP near Km
T14 construct: purchased Millipore (KinaseProfiler service)
Text: as §1

MST1 = molecular target: T15, MST1 (Homo sapiens, UniProt Q13043); experiment: KinaseProfiler MST1; type: biochemical; conditions: 10 μM, ATP near Km
T15 construct: purchased Millipore, Inc. (KinaseProfiler service)
Text: as §1

T12 sequence (P50613 whole entry): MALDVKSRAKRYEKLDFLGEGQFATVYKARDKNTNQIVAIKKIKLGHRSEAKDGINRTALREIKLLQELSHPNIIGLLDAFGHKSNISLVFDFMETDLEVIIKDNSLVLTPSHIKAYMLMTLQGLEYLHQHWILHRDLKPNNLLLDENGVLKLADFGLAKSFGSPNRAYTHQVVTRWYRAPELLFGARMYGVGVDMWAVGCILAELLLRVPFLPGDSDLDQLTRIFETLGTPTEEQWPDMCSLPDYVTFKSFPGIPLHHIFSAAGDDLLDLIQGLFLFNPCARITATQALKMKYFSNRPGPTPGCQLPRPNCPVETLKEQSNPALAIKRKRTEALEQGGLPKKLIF
T12 sequence (P51946 whole entry partner): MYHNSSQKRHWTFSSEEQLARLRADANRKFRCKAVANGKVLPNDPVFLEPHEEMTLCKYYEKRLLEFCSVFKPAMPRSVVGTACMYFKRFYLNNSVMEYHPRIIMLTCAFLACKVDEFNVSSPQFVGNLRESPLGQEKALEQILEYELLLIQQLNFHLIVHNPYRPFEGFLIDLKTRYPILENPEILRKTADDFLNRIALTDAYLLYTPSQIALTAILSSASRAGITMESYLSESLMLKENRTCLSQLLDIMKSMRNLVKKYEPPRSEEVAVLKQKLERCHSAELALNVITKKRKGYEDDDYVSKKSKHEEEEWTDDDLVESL
T12 sequence (P51948 whole entry partner): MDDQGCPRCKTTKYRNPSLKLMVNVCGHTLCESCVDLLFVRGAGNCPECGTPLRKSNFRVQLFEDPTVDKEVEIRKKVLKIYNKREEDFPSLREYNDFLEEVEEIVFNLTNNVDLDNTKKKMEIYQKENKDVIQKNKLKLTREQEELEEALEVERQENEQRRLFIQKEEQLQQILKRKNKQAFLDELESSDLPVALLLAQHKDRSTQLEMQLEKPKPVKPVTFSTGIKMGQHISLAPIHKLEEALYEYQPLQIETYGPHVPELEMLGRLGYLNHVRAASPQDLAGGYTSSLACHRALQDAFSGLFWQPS
T5 sequence (Q13882 whole entry): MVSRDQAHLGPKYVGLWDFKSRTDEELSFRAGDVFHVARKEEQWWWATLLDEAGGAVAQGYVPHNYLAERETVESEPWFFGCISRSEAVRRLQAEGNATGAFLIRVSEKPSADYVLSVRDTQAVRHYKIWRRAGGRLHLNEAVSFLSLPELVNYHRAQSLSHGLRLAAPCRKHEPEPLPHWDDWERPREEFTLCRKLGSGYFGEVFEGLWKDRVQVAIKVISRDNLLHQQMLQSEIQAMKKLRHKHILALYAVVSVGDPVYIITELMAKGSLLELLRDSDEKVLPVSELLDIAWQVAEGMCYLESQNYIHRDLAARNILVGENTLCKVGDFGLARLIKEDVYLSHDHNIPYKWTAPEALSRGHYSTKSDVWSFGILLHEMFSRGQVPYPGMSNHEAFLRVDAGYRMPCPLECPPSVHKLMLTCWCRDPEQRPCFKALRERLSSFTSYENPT
T10 sequence (O00141 whole entry): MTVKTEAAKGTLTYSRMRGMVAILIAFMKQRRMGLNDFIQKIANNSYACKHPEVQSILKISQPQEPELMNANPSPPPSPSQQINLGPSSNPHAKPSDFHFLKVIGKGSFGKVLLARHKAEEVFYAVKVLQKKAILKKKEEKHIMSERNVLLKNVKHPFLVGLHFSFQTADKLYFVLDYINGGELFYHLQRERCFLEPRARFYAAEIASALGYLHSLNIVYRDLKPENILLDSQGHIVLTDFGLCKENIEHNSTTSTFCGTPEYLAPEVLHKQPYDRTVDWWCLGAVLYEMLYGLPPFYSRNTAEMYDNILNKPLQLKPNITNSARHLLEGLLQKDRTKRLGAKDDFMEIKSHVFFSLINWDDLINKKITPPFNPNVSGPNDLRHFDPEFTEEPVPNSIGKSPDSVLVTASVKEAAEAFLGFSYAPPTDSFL
T11 sequence (P42684 whole entry): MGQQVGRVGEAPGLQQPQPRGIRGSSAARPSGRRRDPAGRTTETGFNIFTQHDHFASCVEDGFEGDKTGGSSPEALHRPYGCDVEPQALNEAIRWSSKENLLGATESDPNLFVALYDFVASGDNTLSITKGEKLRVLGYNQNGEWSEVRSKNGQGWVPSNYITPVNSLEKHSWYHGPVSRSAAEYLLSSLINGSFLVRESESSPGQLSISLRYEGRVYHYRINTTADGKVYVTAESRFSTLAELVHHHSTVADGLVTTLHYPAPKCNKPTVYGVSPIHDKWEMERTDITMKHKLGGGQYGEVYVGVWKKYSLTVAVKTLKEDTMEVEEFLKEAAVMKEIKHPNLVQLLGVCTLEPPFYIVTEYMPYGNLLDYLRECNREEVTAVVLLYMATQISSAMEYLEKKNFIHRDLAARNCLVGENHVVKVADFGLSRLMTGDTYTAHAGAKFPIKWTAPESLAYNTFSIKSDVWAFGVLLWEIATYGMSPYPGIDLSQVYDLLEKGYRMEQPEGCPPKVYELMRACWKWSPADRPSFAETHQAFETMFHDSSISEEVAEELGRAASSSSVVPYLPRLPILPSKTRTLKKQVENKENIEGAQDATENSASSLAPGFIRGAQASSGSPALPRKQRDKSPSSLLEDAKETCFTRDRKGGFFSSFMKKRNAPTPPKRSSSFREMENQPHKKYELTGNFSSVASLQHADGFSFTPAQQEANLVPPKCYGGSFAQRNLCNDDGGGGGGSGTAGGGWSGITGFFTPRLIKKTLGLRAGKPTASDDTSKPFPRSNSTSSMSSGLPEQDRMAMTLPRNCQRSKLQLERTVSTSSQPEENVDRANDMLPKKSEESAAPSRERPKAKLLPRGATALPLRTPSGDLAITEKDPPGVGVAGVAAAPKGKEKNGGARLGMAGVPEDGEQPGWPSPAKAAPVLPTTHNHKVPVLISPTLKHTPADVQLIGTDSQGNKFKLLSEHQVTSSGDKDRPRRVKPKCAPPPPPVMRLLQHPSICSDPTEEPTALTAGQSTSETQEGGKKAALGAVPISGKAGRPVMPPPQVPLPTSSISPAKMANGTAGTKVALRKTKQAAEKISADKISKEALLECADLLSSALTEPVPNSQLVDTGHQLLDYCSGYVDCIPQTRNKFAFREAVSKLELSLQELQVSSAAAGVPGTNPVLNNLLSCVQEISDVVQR
T14 sequence (Q9Y243 whole entry): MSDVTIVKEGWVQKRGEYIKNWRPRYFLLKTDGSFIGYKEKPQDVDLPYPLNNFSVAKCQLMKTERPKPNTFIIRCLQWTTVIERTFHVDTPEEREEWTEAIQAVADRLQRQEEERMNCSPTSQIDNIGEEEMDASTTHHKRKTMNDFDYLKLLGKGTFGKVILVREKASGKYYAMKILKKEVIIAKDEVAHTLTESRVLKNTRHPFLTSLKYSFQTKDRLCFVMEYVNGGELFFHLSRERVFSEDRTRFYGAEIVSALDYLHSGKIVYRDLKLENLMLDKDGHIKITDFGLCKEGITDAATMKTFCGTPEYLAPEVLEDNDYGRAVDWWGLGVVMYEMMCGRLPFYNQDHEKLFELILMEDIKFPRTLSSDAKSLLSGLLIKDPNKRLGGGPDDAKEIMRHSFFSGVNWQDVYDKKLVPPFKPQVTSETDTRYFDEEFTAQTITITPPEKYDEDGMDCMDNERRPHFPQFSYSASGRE
T9 sequence (P16591 whole entry): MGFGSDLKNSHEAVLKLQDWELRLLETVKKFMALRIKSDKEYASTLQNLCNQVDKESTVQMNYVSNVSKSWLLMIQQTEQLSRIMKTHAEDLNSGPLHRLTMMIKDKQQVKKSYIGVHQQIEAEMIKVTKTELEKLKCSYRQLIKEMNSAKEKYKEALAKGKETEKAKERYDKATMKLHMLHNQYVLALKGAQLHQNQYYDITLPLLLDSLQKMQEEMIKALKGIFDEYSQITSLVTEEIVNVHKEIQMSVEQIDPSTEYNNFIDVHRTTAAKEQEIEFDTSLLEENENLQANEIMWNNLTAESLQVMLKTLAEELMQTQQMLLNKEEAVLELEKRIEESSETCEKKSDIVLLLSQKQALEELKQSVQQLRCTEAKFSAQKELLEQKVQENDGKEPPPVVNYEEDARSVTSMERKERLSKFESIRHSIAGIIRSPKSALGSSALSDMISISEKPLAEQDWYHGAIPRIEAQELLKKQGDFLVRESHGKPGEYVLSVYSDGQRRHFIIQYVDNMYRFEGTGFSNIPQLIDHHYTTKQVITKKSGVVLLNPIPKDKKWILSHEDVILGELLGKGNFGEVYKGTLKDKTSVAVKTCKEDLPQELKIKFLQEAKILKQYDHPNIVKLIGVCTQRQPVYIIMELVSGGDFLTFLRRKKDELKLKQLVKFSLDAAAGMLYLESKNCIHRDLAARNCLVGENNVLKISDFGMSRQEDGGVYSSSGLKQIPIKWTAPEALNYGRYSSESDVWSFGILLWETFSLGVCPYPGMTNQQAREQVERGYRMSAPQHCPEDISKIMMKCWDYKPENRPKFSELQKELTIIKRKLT
T1 sequence (Q00535 whole entry): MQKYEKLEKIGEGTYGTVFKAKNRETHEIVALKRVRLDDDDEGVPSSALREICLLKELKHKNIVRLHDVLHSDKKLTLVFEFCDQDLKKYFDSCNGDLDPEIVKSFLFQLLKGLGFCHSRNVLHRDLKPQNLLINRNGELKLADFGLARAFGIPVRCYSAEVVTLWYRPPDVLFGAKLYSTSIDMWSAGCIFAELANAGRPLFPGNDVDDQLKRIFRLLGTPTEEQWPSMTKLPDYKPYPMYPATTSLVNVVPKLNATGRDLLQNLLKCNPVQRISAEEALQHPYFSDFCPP
T1 sequence (Q15078 whole entry partner): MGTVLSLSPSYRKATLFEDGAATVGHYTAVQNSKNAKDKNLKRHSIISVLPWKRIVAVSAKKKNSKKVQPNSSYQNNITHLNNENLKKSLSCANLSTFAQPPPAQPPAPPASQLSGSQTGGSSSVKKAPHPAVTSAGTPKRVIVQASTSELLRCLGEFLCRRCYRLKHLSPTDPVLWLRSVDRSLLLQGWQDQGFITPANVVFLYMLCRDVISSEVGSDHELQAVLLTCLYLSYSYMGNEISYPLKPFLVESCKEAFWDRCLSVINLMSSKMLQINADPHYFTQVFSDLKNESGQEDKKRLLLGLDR

Cc1c(-c2cnn(C)c2)nn(-c2ccccc2)c1NC(=O)Nc1cc(C(F)(F)F)nn1-c1ccccc1 [Example 3, 1-(1′,4-dimethyl-1-phenyl-1H,1′H-[3,4′-bipyrazol]-5-yl)-3-(1-phenyl-3-(trifluoromethyl)-1H-pyrazol-5-yl)urea]
Avg POC (CDK5/p35): 110.5 POC | Avg POC (EphB3): 63 POC | Avg POC (GSK3alpha): 170 POC | IC50 [1]: < 100 nM | Avg POC (PTK6): 110 POC | Avg POC (Bmx): 114.5 POC | Avg POC (EphA7): 91 POC | Avg POC (PTK5): 102 POC | Avg POC (Fer): 92.5 POC | Avg POC (SGK1): 276.5 POC | Avg POC (Abl2): 148.5 POC | Avg POC (CDK7/cyclinH/MAT1): 120.5 POC | Avg POC (FGFR1): 96 POC | Avg POC (AKT3): 99 POC | Avg POC (MST1): 92.5 POC
